Assay results from ChEMBL document CHEMBL3865788, “Synthesis, characterization and interaction studies of 1,3,4-oxadiazole derivatives of fatty acid with human serum albumin (HSA): A combined multi-spectroscopic and molecular docking study” (Eur J Med Chem, 2016).

Tests used:
Type in all cases: ADME
Conditions in all cases: isolated protein
Albumin [1] = biological target: T1, Albumin (Homo sapiens, UniProt P02768); test: Binding affinity to human serum albumin assessed as quenching constant in steady state at 298K and pH 7.4 by fluorescence spectroscopy
T1 sequence (P02768 whole entry): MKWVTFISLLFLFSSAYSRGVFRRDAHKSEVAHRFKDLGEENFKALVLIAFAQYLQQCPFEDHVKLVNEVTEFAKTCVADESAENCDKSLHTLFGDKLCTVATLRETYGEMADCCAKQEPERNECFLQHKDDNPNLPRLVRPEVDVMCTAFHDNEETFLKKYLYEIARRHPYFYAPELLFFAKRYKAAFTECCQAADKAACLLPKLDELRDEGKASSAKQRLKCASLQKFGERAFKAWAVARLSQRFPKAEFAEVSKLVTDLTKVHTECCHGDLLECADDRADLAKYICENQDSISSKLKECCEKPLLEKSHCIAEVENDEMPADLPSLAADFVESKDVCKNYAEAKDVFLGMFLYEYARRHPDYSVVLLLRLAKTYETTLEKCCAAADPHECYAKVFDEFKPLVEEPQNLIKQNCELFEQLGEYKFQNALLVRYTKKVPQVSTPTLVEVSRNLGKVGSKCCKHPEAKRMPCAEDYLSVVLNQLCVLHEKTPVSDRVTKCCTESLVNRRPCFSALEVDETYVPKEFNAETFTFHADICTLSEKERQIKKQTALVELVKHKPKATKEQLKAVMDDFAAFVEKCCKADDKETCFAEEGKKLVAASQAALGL

Albumin [2] = biological target: T1, Albumin; test: Binding affinity to human serum albumin assessed as Stern-Volmer quenching constant in steady state at 298K and pH 7.4 by fluorescence spectroscopy
Albumin [3] = biological target: T1, Albumin; test: Binding affinity to human serum albumin assessed as absorbance at 280 nanometer at 50 and 100 uM by UV-vis spectroscopy
Albumin [4] = biological target: T1, Albumin; test: Binding affinity to human serum albumin assessed as binding constant in steady state at 298K and pH 7.4 by fluorescence spectroscopy

SMILES: CCCCCCCC/C=C\CCCCCCCc1nnc(C)o1
- Kq (Albumin [1]): 6.4 ×10¹¹ /M/s
- KSV (Albumin [2]): 3.6 ×10³ /M
- Activity (Albumin [3]): < 0.03
- Kb (Albumin [4]): 2.95 ×10³ /M
